Assay results from patent publication US20210395239A1 (Hoffmann-La Roche Inc., priority 2018, published 2021).

These molecules were tested against T1, human TLR7 (Homo sapiens, UniProt Q9NYK1) (assay: HEK293-Blue-hTLR-7 cells assay (SEAP reporter, R848 stimulation)). Conditions: HEK293-Blue-hTLR7 cells, R848, 20 hrs; read-out: HEK/hTLR7 IC50.
T1 construct: host or cells: HEK293 (HEK-Blue hTLR7)
T1 sequence (Q9NYK1 27-1049): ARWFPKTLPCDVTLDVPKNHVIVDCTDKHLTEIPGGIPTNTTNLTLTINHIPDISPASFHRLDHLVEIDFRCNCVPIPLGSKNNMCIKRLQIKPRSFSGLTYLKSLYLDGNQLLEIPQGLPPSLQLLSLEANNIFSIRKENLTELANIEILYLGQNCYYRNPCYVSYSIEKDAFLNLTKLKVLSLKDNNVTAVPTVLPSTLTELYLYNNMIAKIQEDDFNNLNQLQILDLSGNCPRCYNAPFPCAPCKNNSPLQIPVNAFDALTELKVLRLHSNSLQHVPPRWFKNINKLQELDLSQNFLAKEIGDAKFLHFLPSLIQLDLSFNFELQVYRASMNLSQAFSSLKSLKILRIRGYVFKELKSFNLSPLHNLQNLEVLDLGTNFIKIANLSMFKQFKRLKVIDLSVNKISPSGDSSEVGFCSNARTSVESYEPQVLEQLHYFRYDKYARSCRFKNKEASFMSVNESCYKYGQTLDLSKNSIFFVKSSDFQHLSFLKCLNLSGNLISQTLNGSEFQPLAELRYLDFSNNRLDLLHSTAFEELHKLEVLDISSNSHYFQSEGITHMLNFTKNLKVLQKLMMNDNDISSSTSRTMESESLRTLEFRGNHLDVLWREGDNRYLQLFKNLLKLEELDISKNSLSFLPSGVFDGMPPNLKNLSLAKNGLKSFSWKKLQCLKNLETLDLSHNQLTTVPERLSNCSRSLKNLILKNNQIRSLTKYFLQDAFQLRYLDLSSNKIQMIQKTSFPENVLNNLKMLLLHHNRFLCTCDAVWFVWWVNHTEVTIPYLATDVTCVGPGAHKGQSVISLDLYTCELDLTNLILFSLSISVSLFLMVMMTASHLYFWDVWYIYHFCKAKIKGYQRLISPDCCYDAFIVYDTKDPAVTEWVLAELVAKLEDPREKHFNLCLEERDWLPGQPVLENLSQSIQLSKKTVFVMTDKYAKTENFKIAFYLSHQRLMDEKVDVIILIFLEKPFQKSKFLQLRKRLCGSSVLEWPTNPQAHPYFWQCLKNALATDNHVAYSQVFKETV
Type: cell-based
Source text: HEK293-Blue-hTLR-7 Cells Assay:
A stable HEK293-Blue-hTLR-7 cell line was purchased from InvivoGen (Cat. #: hkb-ht1r7, San Diego, Calif., USA). These cells were originally designed for studying the stimulation of human TLR7 by monitoring the activation of NF-κB. A SEAP (secreted embryonic alkaline phosphatase) reporter gene was placed under the control of the IFN-β minimal promoter fused to five NF-κB and AP-1-binding sites. The SEAP was induced by activating NF-κB and AP-1 via stimulating HEK-Blue hTLR7 cells with TLR7 ligands. Therefore the reporter expression was declined by TLR7 antagonist under the stimulation of a ligand, such as R848 (Resiquimod), for incubation of 20 hrs. The cell culture supernatant SEAP reporter activity was determined using QUANTI-Blue™ kit (Cat. #: rep-qb1, Invivogen, San Diego, Ca, USA) at a wavelength of 640 nm, a detection medium that turns purple or blue in the presence of alkaline phosphatase.
HEK293-Blue-hTLR7 cells were incubated at a density of […] cells/mL in a volume of 170 μL in a 96-well plate in Dulbecco's Modified Eagle's medium (DMEM) containing 4.5 g/L glucose, 50 U/mL penicillin, […], […], 2 mM L-glutamine, 10% (v/v) heat-inactivated fetal bovine serum with addition of 20 μL test compound in a serial dilution in the presence of final DMSO at 1% and 10 μL of 20 uM R848 in above DMEM, perform incubation under 37° C. in a CO2 incubator for 20 hrs. Then 20 μL of the supernatant from each well was incubated with 180 μL Quanti-blue substrate solution at 37° C. for 2 hrs and the absorbance was read at 620˜655 nm using a spectrophotometer. The signaling pathway that TLR7 activation leads to downstream NF-κB activation has been widely accepted, and therefore similar reporter assay was modified for evaluating TLR7 antagonist.

SMILES	IC50
COC1CN(c2nccc(N3CCN(C[C@H]4CN(c5ccc(C#N)c6ncccc56)C[C@@H](C)O4)CC3)n2)CC1N (stereo in doubt) [Example 93, 5-[(2S,6R)-2-[[4-[2-[(3R,4S)-3-amino-4-methoxy-pyrrolidin-1-yl]pyrimidin-4-yl]piperazin-1-yl]methyl]-6-methyl-morpholin-4-yl]quinoline-8-carbonitrile]	12 nM
C[C@@H]1CN(c2ccc(C#N)c3ncccc23)C[C@H](CN2CCC(c3cccc(N4CCNCC4)c3)C2)O1 (stereo partly drawn) [Example 1, 5-[(2R,6S)-2-methyl-6-[[3-(3-piperazin-1-ylphenyl)pyrrolidin-1-yl]methyl]morpholin-4-yl]quinoline-8-carbonitrile]	84 nM
C[C@@H]1CN(c2ccc(C#N)c3ncccc23)C[C@H](CN2CCC(c3cccc(C4CCNCC4)c3)CC2)O1 [Example 2, 5-[(2R,6S)-2-methyl-6-[[4-[3-(4-piperidyl)phenyl]-1-piperidyl]methyl]morpholin-4-yl]quinoline-8-carbonitrile]	93 nM
C[C@@H]1CN(c2ccc(C#N)c3ncccc23)C[C@H](CN2CC(c3ccc(N4CCNCC4)cc3)C2)O1 [Example 3, 5-[(2R,6S)-2-methyl-6-[[3-(4-piperazin-1-ylphenyl)azetidin-1-yl]methyl]morpholin-4-yl]quinoline-8-carbonitrile]	11 nM
C[C@@H]1CN(c2ccc(C#N)c3ncccc23)C[C@H](CN2CC(c3cccc(N4CCNCC4)c3)C2)O1 [Example 4, 5-[(2R,6S)-2-methyl-6-[[3-(3-piperazin-1-ylphenyl)azetidin-1-yl]methyl]morpholin-4-yl]quinoline-8-carbonitrile]	16 nM
C[C@@H]1CN(c2ccc(C#N)c3ncccc23)C[C@H](CN2CCN(c3ccc(CN)cc3)CC2)O1 [Example 5, 5-[(2S,6R)-2-[[4-[4-(aminomethyl)phenyl]piperazin-1-yl]methyl]-6-methyl-morpholin-4-yl]quinoline-8-carbonitrile]	54 nM
C[C@@H]1CN(c2ccc(C#N)c3ncccc23)C[C@H](CN2CCN(c3cnc(N4CCNCC4)cn3)CC2)O1 [Example 6, 5-[(2R,6S)-2-methyl-6-[[4-(5-piperazin-1-ylpyrazin-2-yl)piperazin-1-yl]methyl]morpholin-4-yl]quinoline-8-carbonitrile]	51 nM
COc1cc(N2CCN(C[C@H]3CN(c4ccc(C#N)c5ncccc45)C[C@@H](C)O3)CC2)nc(N2CCNCC2)n1 [Example 91, 5-[(2S,6R)-2-[[4-(6-methoxy-2-piperazin-1-yl-pyrimidin-4-yl)piperazin-1-yl]methyl]-6-methyl-morpholin-4-yl]quinoline-8-carbonitrile]	13 nM
CO[C@@H]1CN(c2nccc(N3CCN(C[C@H]4CN(c5ccc(C#N)c6ncccc56)C[C@@H](C)O4)CC3)n2)C[C@@H]1N [Example 92, 5-[(2S,6R)-2-[[4-[2-[(3S,4R)-3-amino-4-methoxy-pyrrolidin-1-yl]pyrimidin-4-yl]piperazin-1-yl]methyl]-6-methyl-morpholin-4-yl]quinoline-8-carbonitrile]	5 nM
C[C@@H]1CN(c2ccc(C#N)c3ncccc23)C[C@H](CN2CCN(c3ncc(F)c(N4CCNCC4)n3)CC2)O1 [Example 94, 5-[(2S,6R)-2-[[4-(5-fluoro-4-piperazin-1-yl-pyrimidin-2-yl)piperazin-1-yl]methyl]-6-methyl-morpholin-4-yl]quinoline-8-carbonitrile]	13 nM
C[C@@H]1CN(c2ccc(C#N)c3ncccc23)C[C@H](CN2CCN(c3ccnc(N4C[C@@H](F)[C@@H](N)C4)n3)CC2)O1 [Example 95, 5-[(2S,6R)-2-[[4-[2-[(3S,4R)-3-amino-4-fluoro-pyrrolidin-1-yl]pyrimidin-4-yl]piperazin-1-yl]methyl]-6-methyl-morpholin-4-yl]quinoline-8-carbonitrile]	7 nM
C[C@@H]1CN(c2ccc(C#N)c3ncccc23)C[C@H](CN2CCN(c3ccnc(N4C[C@@H](N)[C@H](F)C4)n3)CC2)O1 [Example 96, 5-[(2S,6R)-2-[[4-[2-[(3R,4R)-3-amino-4-fluoro-pyrrolidin-1-yl]pyrimidin-4-yl]piperazin-1-yl]methyl]-6-methyl-morpholin-4-yl]quinoline-8-carbonitrile]	18 nM
CO[C@H]1CN(c2ccnc(N3CCN(C[C@H]4CN(c5ccc(C#N)c6ncccc56)C[C@@H](C)O4)CC3)n2)C[C@@H]1N [Example 97, 5-[(2S,6R)-2-[[4-[4-[(3S,4S)-3-amino-4-methoxy-pyrrolidin-1-yl]pyrimidin-2-yl]piperazin-1-yl]methyl]-6-methyl-morpholin-4-yl]quinoline-8-carbonitrile]	27 nM
CO[C@@H]1CN(c2nccc(N3CCN(C[C@H]4CN(c5ccc(C#N)c6nccnc56)C[C@@H](C)O4)CC3)n2)C[C@H]1N [Example 98, 8-[(2S,6R)-2-[[4-[2-[(3R,4R)-3-amino-4-methoxy-pyrrolidin-1-yl]pyrimidin-4-yl]piperazin-1-yl]methyl]-6-methyl-morpholin-4-yl]quinoxaline-5-carbonitrile]	6 nM
CO[C@H]1CN(c2nccc(N3CCN(C[C@H]4CN(c5ccc(C#N)c6nccnc56)C[C@@H](C)O4)CC3)n2)C[C@@H]1N [Example 99, 8-[(2S,6R)-2-[[4-[2-[(3S,4S)-3-amino-4-methoxy-pyrrolidin-1-yl]pyrimidin-4-yl]piperazin-1-yl]methyl]-6-methyl-morpholin-4-yl]quinoxaline-5-carbonitrile]	11 nM
C[C@@H]1CN(c2ccc(C#N)c3ncccc23)C[C@H](CN2CCN(c3ccnc(N4C[C@@H](N)[C@@H](F)C4)n3)CC2)O1 [Example 101, 5-[(2S,6R)-2-[[4-[2-[(3R,4S)-3-amino-4-fluoro-pyrrolidin-1-yl]pyrimidin-4-yl]piperazin-1-yl]methyl]-6-methyl-morpholin-4-yl]quinoline-8-carbonitrile]	11 nM
Cc1cnc(N2CCN(C[C@H]3CN(c4ccc(C#N)c5ncccc45)C[C@@H](C)O3)CC2)nc1N1CCNCC1 [Example 102, 5-[(2R,6S)-2-methyl-6-[[4-(5-methyl-4-piperazin-1-yl-pyrimidin-2-yl)piperazin-1-yl]methyl]morpholin-4-yl]quinoline-8-carbonitrile]	18 nM
C[C@@H]1CN(c2ccc(C#N)c3ncccc23)C[C@H](CN2CCN(c3ccnc(N4C[C@H]5NCCO[C@@H]5C4)n3)CC2)O1 [Example 103, 5-[(2S,6R)-2-[[4-[2-[(4aR,7aR)-3,4,4a,5,7,7a-hexahydro-2H-pyrrolo[3,4-b][1,4]oxazin-6-yl]pyrimidin-4-yl]piperazin-1-yl]methyl]-6-methyl-morpholin-4-yl]quinoline-8-carbonitrile]	10 nM
CO[C@H]1CN(c2cc(C)nc(N3CCN(C[C@H]4CN(c5ccc(C#N)c6nccnc56)C[C@@H](C)O4)CC3)n2)C[C@@H]1N [Example 104, 8-[(2S,6R)-2-[[4-[4-[(3S,4S)-3-amino-4-methoxy-pyrrolidin-1-yl]-6-methyl-pyrimidin-2-yl]piperazin-1-yl]methyl]-6-methyl-morpholin-4-yl]quinoxaline-5-carbonitrile]	22 nM
